Reference: article PMC5290327, “SC83288 is a clinical development candidate for the treatment of severe malaria” (Nature Communications, 2017)
Values joined by “and” are separate entries in the source; they are usually repeats but may differ in a detail not shown here. Equal entries are not always repeated. Where two headings read alike, the source gives them in different places.

Legend:
P. falciparum strain Dd2 = assay: Growth inhibition assay, asexual blood stages; assay type: cell-based, Plasmodium falciparum; settings: for IC90: Plasmodium falciparum, DD2, 72 h; for absolute Hill coefficient: in vitro growth inhibition curves
P. falciparum strain 3D7 = assay: Efficacy in the Pf/NSG mouse model; assay type: in vivo, Plasmodium falciparum; settings: 3D7, humanized NSG mouse
P. falciparum strain W2 = assay: Efficacy in the Pf/NSG mouse model; assay type: in vivo, Plasmodium falciparum; settings: W2, humanized NSG mouse
H2 (h) = target: T1, H2 (h) (Homo sapiens, UniProt P25021); assay: Radioligand binding
T1 construct: Cerep
T1 sequence (P25021 whole entry): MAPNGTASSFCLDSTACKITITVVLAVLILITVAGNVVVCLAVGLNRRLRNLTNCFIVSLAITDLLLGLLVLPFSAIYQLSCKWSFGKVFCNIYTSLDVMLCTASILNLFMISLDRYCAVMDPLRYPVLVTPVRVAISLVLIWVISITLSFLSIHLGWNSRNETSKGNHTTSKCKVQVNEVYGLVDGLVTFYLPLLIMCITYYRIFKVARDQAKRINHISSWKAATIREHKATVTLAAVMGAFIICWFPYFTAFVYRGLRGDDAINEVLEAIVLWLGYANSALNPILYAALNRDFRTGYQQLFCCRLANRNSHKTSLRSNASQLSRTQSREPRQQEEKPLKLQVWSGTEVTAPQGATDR

MC4 (h) = target: T2, MC4 (h) (Homo sapiens, UniProt P32245); assay: Radioligand binding
T2 construct: Cerep
T2 sequence (P32245 whole entry): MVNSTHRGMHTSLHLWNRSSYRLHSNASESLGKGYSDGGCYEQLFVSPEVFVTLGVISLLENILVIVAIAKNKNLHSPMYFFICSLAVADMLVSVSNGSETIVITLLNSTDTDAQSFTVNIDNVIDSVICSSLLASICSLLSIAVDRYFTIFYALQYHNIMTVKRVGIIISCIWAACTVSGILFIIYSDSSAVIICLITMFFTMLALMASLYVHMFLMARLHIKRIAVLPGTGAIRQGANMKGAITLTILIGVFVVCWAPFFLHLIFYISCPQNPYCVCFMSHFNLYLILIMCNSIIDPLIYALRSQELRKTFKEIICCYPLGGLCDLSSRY

NK3 (h) = target: T3, NK3 (h) (Homo sapiens, UniProt P29371); assay: Radioligand binding
T3 construct: Cerep
T3 sequence (P29371 whole entry): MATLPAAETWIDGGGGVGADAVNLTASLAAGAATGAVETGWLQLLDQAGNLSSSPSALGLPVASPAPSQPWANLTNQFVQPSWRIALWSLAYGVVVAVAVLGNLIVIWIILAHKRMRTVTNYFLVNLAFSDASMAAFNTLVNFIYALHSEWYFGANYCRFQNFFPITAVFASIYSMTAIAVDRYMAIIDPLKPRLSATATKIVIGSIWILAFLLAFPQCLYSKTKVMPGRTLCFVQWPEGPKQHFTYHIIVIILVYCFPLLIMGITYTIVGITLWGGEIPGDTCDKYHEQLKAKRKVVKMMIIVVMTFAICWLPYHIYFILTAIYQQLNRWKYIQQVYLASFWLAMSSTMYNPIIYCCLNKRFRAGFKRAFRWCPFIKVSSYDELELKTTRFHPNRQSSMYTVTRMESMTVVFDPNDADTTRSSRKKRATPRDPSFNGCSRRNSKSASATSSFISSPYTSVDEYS

5-HT transporter (h) = target: T4, 5-HT transporter (h) (Homo sapiens, UniProt P31645); assay: Radioligand binding
T4 construct: Cerep (contract screening)
T4 sequence (P31645 whole entry): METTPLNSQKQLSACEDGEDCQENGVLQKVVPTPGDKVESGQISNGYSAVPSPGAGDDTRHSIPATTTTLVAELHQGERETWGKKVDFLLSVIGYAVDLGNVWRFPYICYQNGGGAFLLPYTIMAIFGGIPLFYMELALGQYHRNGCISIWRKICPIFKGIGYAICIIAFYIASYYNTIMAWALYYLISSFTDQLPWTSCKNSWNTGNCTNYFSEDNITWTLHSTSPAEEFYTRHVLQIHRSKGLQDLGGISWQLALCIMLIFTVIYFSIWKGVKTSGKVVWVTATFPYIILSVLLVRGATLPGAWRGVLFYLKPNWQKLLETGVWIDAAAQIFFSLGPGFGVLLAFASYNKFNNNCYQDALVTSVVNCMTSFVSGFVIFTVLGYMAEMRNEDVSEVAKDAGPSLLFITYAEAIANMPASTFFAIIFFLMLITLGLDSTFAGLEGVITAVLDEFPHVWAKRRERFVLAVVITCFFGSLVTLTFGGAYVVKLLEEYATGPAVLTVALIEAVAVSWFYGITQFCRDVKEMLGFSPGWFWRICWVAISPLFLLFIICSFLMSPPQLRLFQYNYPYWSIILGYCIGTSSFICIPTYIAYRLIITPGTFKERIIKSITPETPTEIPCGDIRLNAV

ADCK3 = target: T5, ADCK3 (Homo sapiens, UniProt Q8NI60); assay: KINOMEscan; assay type: binding; settings: read-out: Remaining enzyme activity
T5 construct: purchased Ambit (DiscoverX) KINOMEscan; Cerep
Experimental: (§1) The KINOMEscan was carried out by Ambit (San Diego, USA) according to a previously established protocol. The experiment was based on a competition binding assay that quantitatively measures the ability of a compound to compete with an immobilized, active-site directed ligand. The assay is performed by combining three components: DNA-tagged kinase; immobilized ligand; and a test compound. The ability of the test compound to compete with the immobilized ligand is measured via quantitative PCR of the DNA tag.
(§2) For most assays, kinase-tagged T7 phage strains were grown in parallel in 24-well blocks in an Escherichia coli host derived from the BL21 strain. E. coli were grown to log-phase and infected with T7 phage from a frozen stock and incubated with shaking at 32 °C until lysis (90–150 min). The lysates were centrifuged (6,000g) and filtered (0.2 μm) to remove cell debris. The remaining kinases were produced in HEK-293 cells (Sigma Aldrich, catalogue number: 85120602) and subsequently tagged with DNA for quantitative PCR detection. […] The liganded beads were blocked with excess biotin and washed with blocking buffer (SeaBlock (Pierce), 1% bovine serum albumin, 0.05% Tween 20 and 1 mM dithiothreitol) to remove unbound ligand and to reduce non-specific phage binding. […] SC81458 was prepared as 40x stock in 100% DMSO and directly diluted into the assay to a final concentration of 10 μM. All reactions were performed in polypropylene 384-well plates in a final volume of 0.04 ml. […] The kinase concentration in the eluates was measured by quantitative PCR.

ARK5 = target: T6, ARK5 (Homo sapiens, UniProt O60285); assay: KINOMEscan; assay type: binding; settings: read-out: Remaining enzyme activity
T6 construct: purchased Ambit (DiscoverX) KINOMEscan; Cerep
Experimental: as §1, §2

BIKE = target: T7, BIKE (Homo sapiens, UniProt Q9NSY1); assay: KINOMEscan; assay type: binding; settings: read-out: Remaining enzyme activity
T7 construct: purchased Ambit (DiscoverX) KINOMEscan; Cerep
Experimental: as §1, §2

DLK = target: T8, DLK (Homo sapiens, UniProt Q12852); assay: KINOMEscan; assay type: binding; settings: read-out: Remaining enzyme activity
T8 construct: purchased Ambit (DiscoverX) KINOMEscan; Cerep
T8 sequence (Q12852 whole entry): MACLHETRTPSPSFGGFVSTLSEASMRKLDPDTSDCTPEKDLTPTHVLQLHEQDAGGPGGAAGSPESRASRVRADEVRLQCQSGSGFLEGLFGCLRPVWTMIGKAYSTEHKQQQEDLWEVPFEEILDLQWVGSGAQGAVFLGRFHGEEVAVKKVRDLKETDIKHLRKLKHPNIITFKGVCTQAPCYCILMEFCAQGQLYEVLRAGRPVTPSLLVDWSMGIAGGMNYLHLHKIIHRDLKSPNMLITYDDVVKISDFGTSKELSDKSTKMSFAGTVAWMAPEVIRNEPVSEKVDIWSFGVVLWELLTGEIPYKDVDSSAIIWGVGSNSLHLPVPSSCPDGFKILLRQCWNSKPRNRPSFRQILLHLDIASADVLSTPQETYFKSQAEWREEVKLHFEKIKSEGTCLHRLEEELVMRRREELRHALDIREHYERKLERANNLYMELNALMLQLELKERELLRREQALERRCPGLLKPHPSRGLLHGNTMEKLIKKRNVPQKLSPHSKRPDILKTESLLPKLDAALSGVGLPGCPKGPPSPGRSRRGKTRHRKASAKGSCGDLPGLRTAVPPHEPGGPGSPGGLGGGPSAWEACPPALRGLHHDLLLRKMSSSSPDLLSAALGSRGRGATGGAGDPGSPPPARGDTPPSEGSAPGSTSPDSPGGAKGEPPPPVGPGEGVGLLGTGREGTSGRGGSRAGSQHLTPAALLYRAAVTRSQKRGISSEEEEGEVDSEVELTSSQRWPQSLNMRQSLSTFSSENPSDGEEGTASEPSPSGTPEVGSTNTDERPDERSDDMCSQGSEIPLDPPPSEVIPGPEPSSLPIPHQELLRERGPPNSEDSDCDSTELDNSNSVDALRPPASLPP
Experimental: as §1, §2

LIMK2 = target: T9, LIMK2 (Homo sapiens, UniProt P53671); assay: KINOMEscan; assay type: binding; settings: read-out: Remaining enzyme activity
T9 construct: purchased Ambit (DiscoverX) KINOMEscan; Cerep
T9 sequence (P53671 whole entry): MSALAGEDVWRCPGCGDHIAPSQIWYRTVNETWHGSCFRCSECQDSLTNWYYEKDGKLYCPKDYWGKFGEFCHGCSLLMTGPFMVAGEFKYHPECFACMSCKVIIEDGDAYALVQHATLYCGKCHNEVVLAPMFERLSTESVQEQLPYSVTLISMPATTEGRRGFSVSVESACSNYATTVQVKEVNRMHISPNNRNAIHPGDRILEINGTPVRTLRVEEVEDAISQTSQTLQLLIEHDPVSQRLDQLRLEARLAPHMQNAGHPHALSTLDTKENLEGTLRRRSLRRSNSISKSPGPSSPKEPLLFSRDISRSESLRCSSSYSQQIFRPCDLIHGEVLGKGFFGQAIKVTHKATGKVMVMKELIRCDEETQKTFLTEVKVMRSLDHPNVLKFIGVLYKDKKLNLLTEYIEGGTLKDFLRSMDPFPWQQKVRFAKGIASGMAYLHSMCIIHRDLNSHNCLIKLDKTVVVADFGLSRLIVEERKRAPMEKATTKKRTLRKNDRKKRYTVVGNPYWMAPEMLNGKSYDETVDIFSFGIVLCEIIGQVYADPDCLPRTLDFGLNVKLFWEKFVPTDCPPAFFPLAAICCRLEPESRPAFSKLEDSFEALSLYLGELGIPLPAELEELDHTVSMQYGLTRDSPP
Experimental: as §1, §2

MAP4K3 = target: T10, MAP4K3 (Homo sapiens, UniProt Q8IVH8); assay: KINOMEscan; assay type: binding; settings: read-out: Remaining enzyme activity
T10 construct: purchased Ambit (DiscoverX) KINOMEscan; Cerep
T10 sequence (Q8IVH8 whole entry): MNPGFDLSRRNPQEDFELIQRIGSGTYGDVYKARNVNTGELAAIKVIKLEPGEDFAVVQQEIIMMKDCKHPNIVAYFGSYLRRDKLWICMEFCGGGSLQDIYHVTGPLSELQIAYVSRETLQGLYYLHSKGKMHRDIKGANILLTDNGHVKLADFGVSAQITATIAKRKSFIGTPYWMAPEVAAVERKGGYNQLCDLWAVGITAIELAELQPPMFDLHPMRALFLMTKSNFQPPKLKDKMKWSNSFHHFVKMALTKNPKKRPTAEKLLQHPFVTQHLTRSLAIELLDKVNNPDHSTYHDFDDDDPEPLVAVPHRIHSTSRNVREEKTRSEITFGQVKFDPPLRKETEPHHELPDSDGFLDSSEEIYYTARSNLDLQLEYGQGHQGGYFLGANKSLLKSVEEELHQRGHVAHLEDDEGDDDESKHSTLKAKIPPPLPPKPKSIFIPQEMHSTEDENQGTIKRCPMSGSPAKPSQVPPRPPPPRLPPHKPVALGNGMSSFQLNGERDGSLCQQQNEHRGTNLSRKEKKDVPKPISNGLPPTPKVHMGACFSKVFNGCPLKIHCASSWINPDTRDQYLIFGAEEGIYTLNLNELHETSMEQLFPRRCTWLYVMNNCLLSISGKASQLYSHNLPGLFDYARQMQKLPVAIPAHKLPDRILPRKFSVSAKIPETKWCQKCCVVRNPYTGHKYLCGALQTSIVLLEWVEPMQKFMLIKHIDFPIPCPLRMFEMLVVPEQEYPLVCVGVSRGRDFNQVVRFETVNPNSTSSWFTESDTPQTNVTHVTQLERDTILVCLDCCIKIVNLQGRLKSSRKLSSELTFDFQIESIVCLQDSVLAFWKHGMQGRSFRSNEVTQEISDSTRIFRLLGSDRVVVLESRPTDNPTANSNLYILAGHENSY
Experimental: as §1, §2

MINK = target: T11, MINK (Homo sapiens, UniProt Q8N4C8); assay: KINOMEscan; assay type: binding; settings: read-out: Remaining enzyme activity
T11 construct: purchased Ambit (DiscoverX) KINOMEscan; Cerep
Experimental: as §1, §2

NEK7 = target: T12, NEK7 (Homo sapiens, UniProt Q8TDX7); assay: KINOMEscan; assay type: binding; settings: read-out: Remaining enzyme activity
T12 construct: purchased Ambit (DiscoverX) KINOMEscan; Cerep
T12 sequence (Q8TDX7 whole entry): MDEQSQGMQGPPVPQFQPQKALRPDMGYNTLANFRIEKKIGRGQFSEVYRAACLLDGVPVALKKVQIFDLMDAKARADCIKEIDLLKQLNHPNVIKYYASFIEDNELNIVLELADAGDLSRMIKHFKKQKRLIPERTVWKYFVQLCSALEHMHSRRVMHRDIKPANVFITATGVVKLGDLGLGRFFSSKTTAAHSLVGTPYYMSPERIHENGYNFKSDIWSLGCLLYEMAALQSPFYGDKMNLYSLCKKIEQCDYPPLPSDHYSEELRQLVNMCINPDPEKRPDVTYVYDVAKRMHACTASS
Experimental: as §1, §2

PIM3 = target: T13, PIM3 (Homo sapiens, UniProt Q86V86); assay: KINOMEscan; assay type: binding; settings: read-out: Remaining enzyme activity
T13 construct: purchased Ambit (DiscoverX) KINOMEscan; Cerep
Experimental: as §1, §2

HepG2 cells = assay: Cytotoxicity; settings: 50 μM
human T-cells = assay: Cytotoxicity; settings: 50 μM
Dd2 trophozoites = assay: In vitro speed of action, clearance of trophozoites (Vial protocol); assay type: cell-based, Plasmodium falciparum; settings: 500 nM
Measured pK = assay type: physicochemical
Experimental: SC81458 and SC83288 were soluble in water (890 and 940 μg ml^−1, respectively) and organic solvents. […] The compounds were stable in different physiological solutions, including artificial gastric juice, simulated intestinal fluid, phosphate-buffered saline and human plasma, when incubated for 6 h at 37 °C.

PK study = assay type: in vivo, rat; settings: rat i.v. 2 mg kg^−1; for half-life: rat, 2 mg/kg
Experimental: On the treatment day, all animals were weighed and the dosing volume was calculated for each individual animal according to its actual body weight. All animal were dosed once. Blood samples were taken at different time points and plasma was collected after centrifugation (10,000g, 10 min, 4 °C). Plasma samples were analysed by LC–MS/MS. […] All relevant observations were recorded. The PK studies in cynomolgus monkeys and beagle dogs were performed by the Laboratory of Pharmacology and Toxicology (LPT), Hamburg, and PK and toxicity studies in mice and rats were performed by the 4SC Discovery GmbH, Munich. PK parameters were obtained by a non-compartment analysis, using Kinetica 4.1 (Thermo Scientific).

[1] = Plasma protein binding, rapid equilibrium dialysis; assay type: in vitro ADME; settings: 10 μM
Experimental: The study was carried out by Novamass Ltd (Oulu, Finland). The plasma protein binding of SC83288 was determined in human rat, mouse and cynomolgus plasma, using a method based on rapid equilibrium dialysis and LC/MS/MS analysis. Briefly, plasma from the different species was incubated with a final concentration of SC83288 of 10 μM for 4 h at 37 °C in a rapid equilibrium dialysis device. Proteins were then precipitated by acetonitrile addition containing a phenacetin internal standard. After centrifugation (10,000g) the supernatants were analysed by LC/MS/MS to obtain the protein unbound fraction of the analyte substance.

[2] = Allometric scaling, prediction of human PK

With `CCCCN1CCN(C(=N)c2cccc(NC(=O)Nc3ccc(S(=O)(=O)NCc4ccc(S(N)(=O)=O)cc4)cc3)c2)CC1` [SC81458, 4-(3-(3-((4-butylpiperazin-1-yl)(imino)methyl)phenyl)ureido)-N-(4-sulfamoylbenzyl) benzenesulfonamide] the IC90 (P. falciparum strain Dd2) was 18 nM, the “absolute Hill coefficient” value (P. falciparum strain Dd2) was 2.6±0.3 and the “In vivo logPRR” value (P. falciparum strain 3D7) was 3.2. For the same molecule, the “In vivo logPRR” value (P. falciparum strain W2) was 5.3, the “Inhibition of control specific binding” value (H2 (h)) was 26% and the “Inhibition of control specific binding” value (MC4 (h)) was -10%. For the same molecule, the “Inhibition of control specific binding” value (NK3 (h)) was 6%, the “Inhibition of control specific binding” value (5-HT transporter (h)) was 28% and the remaining binding at 10 µM (ADCK3) was 100%. The remaining binding at 10 µM (ARK5) was 92%, the remaining binding at 10 µM (BIKE) was 85% and the remaining binding at 10 µM (DLK) was 100%. The remaining binding at 10 µM (LIMK2) was 100%, the remaining binding at 10 µM (MAP4K3) was 95% and the remaining binding at 10 µM (MINK) was 95%. The remaining binding at 10 µM (NEK7) was 95%, the remaining binding at 10 µM (PIM3) was 100% and the “in vitro propagation / cytotoxicity” value (HepG2 cells) was “did not affect”. For the same molecule, the “in vitro propagation / cytotoxicity” value (human T-cells) was “did not affect”.

With `COC(=O)N1CCN(C(=N)c2cccc(NC(=O)Nc3ccc(S(=O)(=O)NCc4ccc(S(N)(=O)=O)cc4)cc3)c2)CC1` [SC83288, methyl 4-(imino(3-(3-(4-(N-(4-sulfamoylbenzyl)sulfamoyl)phenyl)ureido)phenyl)methyl) piperazine-1-carboxylate] the IC90 (P. falciparum strain Dd2) was 8 nM, the “absolute Hill coefficient” value (P. falciparum strain Dd2) was 2.6±0.3 and the “exposure time to clear a 0.5% parasitemia” value (Dd2 trophozoites) was at most 3 ± 1 h. The pK (Measured pK) was 9.82, the AUC(0-inf) (PK study; plasma, iv) was 1420 ng·h/mL and the C0 (PK study; plasma, iv) was 4380 ng/mL. It also gave a Cmax (PK study; plasma, iv) of 3280 ng/mL, a Tmax (PK study; plasma, iv) of 5 min and a clearance (PK study; plasma, iv) of 23.5 mL/min/kg. The MRT last (PK study; plasma, iv, read-out: MRT0-t) was 75 min, the VC (PK study) was 0.457 L/kg and the half-life (PK study; plasma, iv, read-out: t1/2 effective) was 52 min. The half-life (PK study; plasma, iv, read-out: t1/2 initial) was 9 min, the half-life (PK study; plasma, iv, read-out: t1/2 terminal) was 625 min and the Bound fraction ([1]; cynomolgus plasma) was 82 ± 2.8% and 82%. The Bound fraction ([1]; human plasma) was 78 ± 1.3% and 78%, the Bound fraction ([1]; mouse plasma) was 89 ± 2.2% and 89% and the Bound fraction ([1]; rat plasma) was 80 ± 0.6%. The “Inhibition of control specific binding” value (H2 (h)) was 0%, the “Inhibition of control specific binding” value (MC4 (h)) was 4% and the “Inhibition of control specific binding” value (NK3 (h)) was 5%. For the same molecule, the “Inhibition of control specific binding” value (5-HT transporter (h)) was 38%, the “in vitro propagation / cytotoxicity” value (HepG2 cells) was “did not affect” and the “in vitro propagation / cytotoxicity” value (human T-cells) was “did not affect”. The “predicted human plasma clearance” value ([2]; allometric scaling, rule of exponents) was 14.7 L/h, the “total plasma clearance rate (higher estimate)” value ([2]; human) was 15,180 ml h^−1 and the “total plasma concentration for […] the free MPC” value ([2]; human projection, assuming 78% plasma protein binding) was 860 ng/mL.
